Consider 2 molecules from ChEMBL document CHEMBL2396625 (Bioorg Med Chem Lett, 2013).

The structures appear in SMILES notation. The source made the active and inactive calls. The rule behind the calls is not given here.

Series [1] has as its target T1, Tyrosine-protein phosphatase non-receptor type 11 (Homo sapiens) (UniProt Q06124).
T1 sequence (whole entry): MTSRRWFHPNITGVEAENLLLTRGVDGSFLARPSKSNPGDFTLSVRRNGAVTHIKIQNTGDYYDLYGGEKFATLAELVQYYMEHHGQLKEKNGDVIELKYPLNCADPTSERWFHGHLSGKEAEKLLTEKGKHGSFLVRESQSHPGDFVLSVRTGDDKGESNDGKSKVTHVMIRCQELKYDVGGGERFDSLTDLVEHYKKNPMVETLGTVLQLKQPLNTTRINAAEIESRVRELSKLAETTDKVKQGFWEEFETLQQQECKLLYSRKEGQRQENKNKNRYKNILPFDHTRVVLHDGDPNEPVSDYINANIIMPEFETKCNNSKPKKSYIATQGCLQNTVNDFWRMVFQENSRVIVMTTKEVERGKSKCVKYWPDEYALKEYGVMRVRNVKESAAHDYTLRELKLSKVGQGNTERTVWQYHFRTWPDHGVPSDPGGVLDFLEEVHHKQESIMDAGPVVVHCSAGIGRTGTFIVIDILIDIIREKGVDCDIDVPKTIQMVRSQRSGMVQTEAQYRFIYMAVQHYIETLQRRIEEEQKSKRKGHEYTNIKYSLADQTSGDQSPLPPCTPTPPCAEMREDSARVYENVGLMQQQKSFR
Description: Inhibition of SHP2 (unknown origin) using DiFMUP as substrate at 5 uM relative to control.

The species entered for a further series is Homo sapiens. The series can be described thus: Inhibition of PP2A (unknown origin) using DiFMUP as substrate at 5 uM relative to control.
Series [2] concerns the target T2, Low molecular weight phosphotyrosine protein phosphatase (Homo sapiens) (UniProt P24666).
T2 sequence (whole entry): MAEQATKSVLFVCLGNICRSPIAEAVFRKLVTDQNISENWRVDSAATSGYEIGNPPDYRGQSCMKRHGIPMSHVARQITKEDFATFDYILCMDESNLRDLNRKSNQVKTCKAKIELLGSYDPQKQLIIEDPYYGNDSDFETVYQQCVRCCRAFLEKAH
Description: Inhibition of LMPTPA (unknown origin) using DiFMUP as substrate at 5 uM relative to control.

Series [3] concerns the target T3, Dual specificity protein phosphatase 22 (Homo sapiens) (UniProt Q9NRW4).
T3 sequence (whole entry): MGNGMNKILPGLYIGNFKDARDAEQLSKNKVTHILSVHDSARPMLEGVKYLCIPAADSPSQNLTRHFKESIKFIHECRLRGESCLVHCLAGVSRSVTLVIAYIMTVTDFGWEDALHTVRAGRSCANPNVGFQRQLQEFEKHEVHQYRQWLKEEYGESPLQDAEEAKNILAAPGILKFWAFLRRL
Description: Inhibition of DUSP22 (unknown origin) using DiFMUP as substrate at 5 uM relative to control.

Series [4] has as its target T4, Receptor-type tyrosine-protein phosphatase C (Homo sapiens) (UniProt P08575).
T4 sequence (whole entry): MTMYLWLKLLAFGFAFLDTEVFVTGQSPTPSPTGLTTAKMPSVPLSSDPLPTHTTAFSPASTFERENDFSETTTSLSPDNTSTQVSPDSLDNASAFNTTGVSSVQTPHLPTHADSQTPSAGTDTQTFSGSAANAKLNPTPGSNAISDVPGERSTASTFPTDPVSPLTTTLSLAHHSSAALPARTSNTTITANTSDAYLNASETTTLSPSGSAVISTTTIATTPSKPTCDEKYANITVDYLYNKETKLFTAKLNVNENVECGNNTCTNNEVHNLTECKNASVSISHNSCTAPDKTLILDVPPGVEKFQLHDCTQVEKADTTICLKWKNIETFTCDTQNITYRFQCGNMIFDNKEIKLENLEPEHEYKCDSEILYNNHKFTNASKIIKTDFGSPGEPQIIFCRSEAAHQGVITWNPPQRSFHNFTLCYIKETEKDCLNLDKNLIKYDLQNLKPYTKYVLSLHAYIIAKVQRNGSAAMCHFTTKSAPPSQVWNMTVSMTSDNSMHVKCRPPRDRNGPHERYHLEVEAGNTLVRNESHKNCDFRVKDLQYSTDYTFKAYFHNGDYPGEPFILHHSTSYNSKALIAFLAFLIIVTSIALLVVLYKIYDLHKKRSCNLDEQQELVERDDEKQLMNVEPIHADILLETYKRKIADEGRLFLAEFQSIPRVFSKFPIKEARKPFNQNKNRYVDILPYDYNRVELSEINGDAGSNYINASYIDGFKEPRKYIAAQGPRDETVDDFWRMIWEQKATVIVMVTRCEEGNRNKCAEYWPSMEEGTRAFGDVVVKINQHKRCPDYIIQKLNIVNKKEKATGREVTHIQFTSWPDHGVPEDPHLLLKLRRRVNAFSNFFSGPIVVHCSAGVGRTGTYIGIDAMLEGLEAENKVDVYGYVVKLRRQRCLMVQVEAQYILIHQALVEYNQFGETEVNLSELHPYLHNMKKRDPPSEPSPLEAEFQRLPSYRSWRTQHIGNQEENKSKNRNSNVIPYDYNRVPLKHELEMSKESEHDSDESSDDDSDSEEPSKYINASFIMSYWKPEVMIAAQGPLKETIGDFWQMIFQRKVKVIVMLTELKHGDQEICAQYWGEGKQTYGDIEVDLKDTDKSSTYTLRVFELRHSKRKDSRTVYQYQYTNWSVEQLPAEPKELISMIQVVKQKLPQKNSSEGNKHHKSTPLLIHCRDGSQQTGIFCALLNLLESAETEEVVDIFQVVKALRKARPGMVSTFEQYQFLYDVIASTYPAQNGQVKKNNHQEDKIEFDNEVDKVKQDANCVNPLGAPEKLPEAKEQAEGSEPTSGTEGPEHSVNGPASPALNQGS
Description: Inhibition of CD45 (unknown origin) using DiFMUP as substrate at 5 uM relative to control.

The next series relates to A375P. The series can be described thus: Antimigratory activity against human A375P cells overexpressing PRL3 at 10 to 20 uM after 20 hrs by crystal violet staining-based light microscopic analysis. The format is functional, cell-based.
For another series, the system named is DU-145. The series can be described thus: Antimigratory activity against human DU145 cells expressing low level of PRL3 at 10 to 20 uM after 20 hrs by crystal violet staining-based light microscopic analysis. Format: functional, cell-based.
Series [5] has as its system DLD-1. The series can be described thus: Cytotoxicity against human DLD1 cells overexpressing PRL3 assessed as growth inhibition at 50 uM after 24 hrs by WST-1 assay. Format: cell-based. Conditions: dld-1, 24 h. (In general: Tetrazolium assays rely on reduction of a dye to a coloured formazan, in cell work by metabolically active cells.)
Series [6] can be described thus: Cytotoxicity against human DLD1 cells overexpressing PRL3 assessed as cell viability at 10 ug/ml after 24 hrs by WST-1 assay relative to control. Conditions: DLD-1 cells overexpressing PRL3, read-out: Activity. Format: cell-based.
Series [7] has as its system DLD-1. Description: Antiinvasive activity against human DLD1 cells overexpressing PRL3 at 20 uM after 20 hrs by crystal violet staining-based light microscopic analysis relative to control. Format: functional. Conditions: DLD-1, 20 h.
In series [8] the test system is DLD-1. Description: Antimigratory activity against human DLD1 cells overexpressing PRL3 by crystal violet staining-based light microscopic analysis. Format: functional, cell-based.
Series [9] deals with DLD-1. The series can be described thus: Antimigratory activity against human DLD1 cells overexpressing PRL3 at 20 uM after 20 hrs by crystal violet staining-based light microscopic analysis relative to control. The format is functional. Conditions: DLD-1, 20 h.

With `COc1ccccc1COc1ccccc1/C=C/C=C1\SC(=S)NC1=O`, the inhibition in series [1] was 18%; in the series listed under Homo sapiens, 29%; in [2] it was 6%; in series [3], 10%; in series [4], 11%; in the series on DLD-1 [8], “Dose-dependent effect”. In addition, in the series on A375P, the outcome was Active. Besides, the result in the series with DU-145 was inactive. For the same molecule, the Activity entry in the series on DLD-1 [5] is on record as “Non-toxic”. In addition, the viability at 24 h, 10 ug/ml in series [6] turned out to be 99.5%. Besides, the figures for the inhibition at 20 µM with DLD-1 [7] and in the series on DLD-1 [9] were > 60% and > 90%, respectively. In addition, 5 µM corresponded to half-maximal inhibition in the series on DLD-1 [8] (IC50).
Take `O=C1NC(=S)S/C1=C\c1cc(Br)ccc1OCc1ccccc1Br`: the inhibition in [1] is 27%; in the series listed under Homo sapiens it was 0%; in series [2] it was 0%; in [3], 30%; in series [4], 12%; with DLD-1 [8], “Dose-dependent effect”. Besides, the result in the series with A375P was Active. The outcome with DU-145 was inactive. Besides, the Activity entry in the series with DLD-1 [5] is reported as “Non-toxic”. Moreover, the viability at 24 h, 10 ug/ml in series [6] was 98.1%. Also, the inhibition at 20 µM in the series with DLD-1 [7] was > 60%; in the series with DLD-1 [9], > 90%. Also, in the series with DLD-1 [8], half-maximal inhibition (IC50) was put at 7 µM.

As usually defined, the inhibition is the relative decrease from the control value, in per cent. The term IC50 denotes the point on the concentration scale where inhibition reaches its midpoint.
